Assay results: the NIST ThermoML archive (doi:10.1021/je034087q)
Numbers after ± are expanded uncertainties.

Test: xn = mol fraction of the nth substance listed

CC(C)=O [acetone] + O=C=O
Conditions	mass density [kg/m3]
318.15 K, 8180 kPa, Fluid (supercritical or subcritical phases), x2 = 0.902	715 ± 4
318.15 K, 8410 kPa, Fluid (supercritical or subcritical phases), x2 = 0.902	722 ± 5
318.15 K, 8570 kPa, Fluid (supercritical or subcritical phases), x2 = 0.902	726 ± 5
318.15 K, 8810 kPa, Fluid (supercritical or subcritical phases), x2 = 0.902	732 ± 5
318.15 K, 8960 kPa, Fluid (supercritical or subcritical phases), x2 = 0.902	735 ± 5
318.15 K, 9180 kPa, Fluid (supercritical or subcritical phases), x2 = 0.902	738 ± 5
318.15 K, 9410 kPa, Fluid (supercritical or subcritical phases), x2 = 0.902	744 ± 5
318.15 K, 9570 kPa, Fluid (supercritical or subcritical phases), x2 = 0.902	746 ± 5
318.15 K, 9780 kPa, Fluid (supercritical or subcritical phases), x2 = 0.902	751 ± 5
318.15 K, 9900 kPa, Fluid (supercritical or subcritical phases), x2 = 0.902	754 ± 5
318.15 K, 10070 kPa, Fluid (supercritical or subcritical phases), x2 = 0.902	756 ± 5
318.15 K, 10330 kPa, Fluid (supercritical or subcritical phases), x2 = 0.902	757 ± 5
318.15 K, 10540 kPa, Fluid (supercritical or subcritical phases), x2 = 0.902	763 ± 5
318.15 K, 10770 kPa, Fluid (supercritical or subcritical phases), x2 = 0.902	766 ± 5
318.15 K, 10970 kPa, Fluid (supercritical or subcritical phases), x2 = 0.902	770 ± 5
318.15 K, 11190 kPa, Fluid (supercritical or subcritical phases), x2 = 0.902	774 ± 5
318.15 K, 11500 kPa, Fluid (supercritical or subcritical phases), x2 = 0.902	776 ± 5
318.15 K, 11830 kPa, Fluid (supercritical or subcritical phases), x2 = 0.902	781 ± 5
318.15 K, 12140 kPa, Fluid (supercritical or subcritical phases), x2 = 0.902	785 ± 5
318.15 K, 12450 kPa, Fluid (supercritical or subcritical phases), x2 = 0.902	789 ± 5
318.15 K, 12710 kPa, Fluid (supercritical or subcritical phases), x2 = 0.902	793 ± 5
318.15 K, 13050 kPa, Fluid (supercritical or subcritical phases), x2 = 0.902	795 ± 5
318.15 K, 13370 kPa, Fluid (supercritical or subcritical phases), x2 = 0.902	798 ± 5
318.15 K, 13700 kPa, Fluid (supercritical or subcritical phases), x2 = 0.902	803 ± 5
318.15 K, 14060 kPa, Fluid (supercritical or subcritical phases), x2 = 0.902	807 ± 5
318.15 K, 14370 kPa, Fluid (supercritical or subcritical phases), x2 = 0.902	809 ± 5
318.15 K, 14610 kPa, Fluid (supercritical or subcritical phases), x2 = 0.902	812 ± 5
318.15 K, 14870 kPa, Fluid (supercritical or subcritical phases), x2 = 0.902	815 ± 5
318.15 K, Liquid, Other PVT measurement, x2 = 0.902	709 ± 2
323.15 K, 1690 kPa, Fluid (supercritical or subcritical phases), x2 = 0.186	764 ± 5
323.15 K, 2050 kPa, Fluid (supercritical or subcritical phases), x2 = 0.186	767 ± 5
323.15 K, 2920 kPa, Fluid (supercritical or subcritical phases), x2 = 0.186	770 ± 5
323.15 K, 4190 kPa, Fluid (supercritical or subcritical phases), x2 = 0.383	789 ± 5
323.15 K, 4500 kPa, Fluid (supercritical or subcritical phases), x2 = 0.186	772 ± 5
323.15 K, 5090 kPa, Fluid (supercritical or subcritical phases), x2 = 0.576	798 ± 5
323.15 K, 5870 kPa, Fluid (supercritical or subcritical phases), x2 = 0.383	795 ± 5
323.15 K, 6050 kPa, Fluid (supercritical or subcritical phases), x2 = 0.186	775 ± 5
323.15 K, 6120 kPa, Fluid (supercritical or subcritical phases), x2 = 0.576	802 ± 5
323.15 K, 7330 kPa, Fluid (supercritical or subcritical phases), x2 = 0.186	777 ± 5
323.15 K, 7430 kPa, Fluid (supercritical or subcritical phases), x2 = 0.576	810 ± 5
323.15 K, 7470 kPa, Fluid (supercritical or subcritical phases), x2 = 0.772	783 ± 5
323.15 K, 7570 kPa, Fluid (supercritical or subcritical phases), x2 = 0.811	760 ± 5
323.15 K, 7780 kPa, Fluid (supercritical or subcritical phases), x2 = 0.811	764 ± 5
323.15 K, 7880 kPa, Fluid (supercritical or subcritical phases), x2 = 0.383	800 ± 5
323.15 K, 7930 kPa, Fluid (supercritical or subcritical phases), x2 = 0.772	787 ± 5
323.15 K, 7930 kPa, Fluid (supercritical or subcritical phases), x2 = 0.811	769 ± 5
323.15 K, 8250 kPa, Fluid (supercritical or subcritical phases), x2 = 0.882	703 ± 4
323.15 K, 8280 kPa, Fluid (supercritical or subcritical phases), x2 = 0.811	774 ± 5
323.15 K, 8420 kPa, Fluid (supercritical or subcritical phases), x2 = 0.772	792 ± 5
323.15 K, 8500 kPa, Fluid (supercritical or subcritical phases), x2 = 0.882	712 ± 4
323.15 K, 8620 kPa, Fluid (supercritical or subcritical phases), x2 = 0.811	778 ± 5
323.15 K, 8630 kPa, Fluid (supercritical or subcritical phases), x2 = 0.882	716 ± 4
323.15 K, 8710 kPa, Fluid (supercritical or subcritical phases), x2 = 0.186	781 ± 5
323.15 K, 8750 kPa, Fluid (supercritical or subcritical phases), x2 = 0.902	678 ± 4
323.15 K, 8790 kPa, Fluid (supercritical or subcritical phases), x2 = 0.882	719 ± 4
323.15 K, 8860 kPa, Fluid (supercritical or subcritical phases), x2 = 0.933	586 ± 4
323.15 K, 8880 kPa, Fluid (supercritical or subcritical phases), x2 = 0.933	590 ± 4
323.15 K, 8920 kPa, Fluid (supercritical or subcritical phases), x2 = 0.902	683 ± 4
323.15 K, 8930 kPa, Fluid (supercritical or subcritical phases), x2 = 0.882	721 ± 5
323.15 K, 8930 kPa, Fluid (supercritical or subcritical phases), x2 = 0.933	594 ± 4
323.15 K, 8960 kPa, Fluid (supercritical or subcritical phases), x2 = 0.576	813 ± 5
323.15 K, 8970 kPa, Fluid (supercritical or subcritical phases), x2 = 0.772	796 ± 5
323.15 K, 8980 kPa, Fluid (supercritical or subcritical phases), x2 = 0.952	495 ± 3
323.15 K, 8990 kPa, Fluid (supercritical or subcritical phases), x2 = 0.933	601 ± 4
323.15 K, 9000 kPa, Fluid (supercritical or subcritical phases), x2 = 0.948	540 ± 3
323.15 K, 9000 kPa, Fluid (supercritical or subcritical phases), x2 = 0.952	497 ± 3
323.15 K, 9020 kPa, Fluid (supercritical or subcritical phases), x2 = 0.902	687 ± 4
323.15 K, 9030 kPa, Fluid (supercritical or subcritical phases), x2 = 0.952	502 ± 3
323.15 K, 9040 kPa, Fluid (supercritical or subcritical phases), x2 = 0.933	606 ± 4
323.15 K, 9060 kPa, Fluid (supercritical or subcritical phases), x2 = 0.948	549 ± 3
323.15 K, 9060 kPa, Fluid (supercritical or subcritical phases), x2 = 0.952	505 ± 3
323.15 K, 9090 kPa, Fluid (supercritical or subcritical phases), x2 = 0.952	510 ± 3
323.15 K, 9100 kPa, Fluid (supercritical or subcritical phases), x2 = 0.933	613 ± 4
323.15 K, 9110 kPa, Fluid (supercritical or subcritical phases), x2 = 0.882	728 ± 5
323.15 K, 9120 kPa, Fluid (supercritical or subcritical phases), x2 = 0.948	559 ± 4
323.15 K, 9120 kPa, Fluid (supercritical or subcritical phases), x2 = 0.952	514 ± 3
323.15 K, 9140 kPa, Fluid (supercritical or subcritical phases), x2 = 0.952	519 ± 3
323.15 K, 9160 kPa, Fluid (supercritical or subcritical phases), x2 = 0.902	690 ± 4
323.15 K, 9170 kPa, Fluid (supercritical or subcritical phases), x2 = 0.952	523 ± 3
323.15 K, 9180 kPa, Fluid (supercritical or subcritical phases), x2 = 0.933	618 ± 4
323.15 K, 9190 kPa, Fluid (supercritical or subcritical phases), x2 = 0.952	527 ± 3
323.15 K, 9200 kPa, Fluid (supercritical or subcritical phases), x2 = 0.948	568 ± 4
323.15 K, 9220 kPa, Fluid (supercritical or subcritical phases), x2 = 0.952	531 ± 3
323.15 K, 9240 kPa, Fluid (supercritical or subcritical phases), x2 = 0.933	624 ± 4
323.15 K, 9250 kPa, Fluid (supercritical or subcritical phases), x2 = 0.952	537 ± 3
323.15 K, 9270 kPa, Fluid (supercritical or subcritical phases), x2 = 0.902	694 ± 4
323.15 K, 9290 kPa, Fluid (supercritical or subcritical phases), x2 = 0.952	541 ± 3
323.15 K, 9300 kPa, Fluid (supercritical or subcritical phases), x2 = 0.948	579 ± 4
323.15 K, 9320 kPa, Fluid (supercritical or subcritical phases), x2 = 0.952	546 ± 3
323.15 K, 9330 kPa, Fluid (supercritical or subcritical phases), x2 = 0.933	630 ± 4
323.15 K, 9350 kPa, Fluid (supercritical or subcritical phases), x2 = 0.811	787 ± 5
323.15 K, 9350 kPa, Fluid (supercritical or subcritical phases), x2 = 0.952	550 ± 3
323.15 K, 9380 kPa, Fluid (supercritical or subcritical phases), x2 = 0.882	732 ± 5
323.15 K, 9380 kPa, Fluid (supercritical or subcritical phases), x2 = 0.952	556 ± 3
323.15 K, 9400 kPa, Fluid (supercritical or subcritical phases), x2 = 0.902	699 ± 4
323.15 K, 9410 kPa, Fluid (supercritical or subcritical phases), x2 = 0.933	637 ± 4
323.15 K, 9410 kPa, Fluid (supercritical or subcritical phases), x2 = 0.948	590 ± 4
323.15 K, 9430 kPa, Fluid (supercritical or subcritical phases), x2 = 0.952	561 ± 4
323.15 K, 9450 kPa, Fluid (supercritical or subcritical phases), x2 = 0.772	798 ± 5
323.15 K, 9480 kPa, Fluid (supercritical or subcritical phases), x2 = 0.952	567 ± 4
323.15 K, 9520 kPa, Fluid (supercritical or subcritical phases), x2 = 0.902	702 ± 4
323.15 K, 9520 kPa, Fluid (supercritical or subcritical phases), x2 = 0.933	642 ± 4
323.15 K, 9520 kPa, Fluid (supercritical or subcritical phases), x2 = 0.952	571 ± 4
323.15 K, 9540 kPa, Fluid (supercritical or subcritical phases), x2 = 0.948	602 ± 4
323.15 K, 9560 kPa, Fluid (supercritical or subcritical phases), x2 = 0.383	803 ± 5
323.15 K, 9560 kPa, Fluid (supercritical or subcritical phases), x2 = 0.952	578 ± 4
323.15 K, 9620 kPa, Fluid (supercritical or subcritical phases), x2 = 0.952	582 ± 4
323.15 K, 9630 kPa, Fluid (supercritical or subcritical phases), x2 = 0.933	649 ± 4
323.15 K, 9650 kPa, Fluid (supercritical or subcritical phases), x2 = 0.882	736 ± 5
323.15 K, 9660 kPa, Fluid (supercritical or subcritical phases), x2 = 0.948	613 ± 4
